Values of other authors in patent US20100136109A1, “SUSTAINED RELEASE” (priority 2007, published 2010).

Settings: in vivo

Compound | half-life
N[C@@H](Cc1cc(I)c(Oc2ccc(O)c(I)c2)c(I)c1)C(=O)O [Formulation T3, triiodothyronine] | approx 12 hours
N[C@@H](Cc1cc(I)c(Oc2cc(I)c(O)c(I)c2)c(I)c1)C(=O)O [Formulation T4, thyroxine] | 170 h
